Measurements taken from patent publication US20250346593A1, “IMIDAZO(1,2-1)PYRIDINE DERIVATIVES AS RIPK2 INHIBITORS” (Interline Therapeutics, Inc., priority 2022, published 2025).
Where two headings read alike, the source gives them in different places.

How the values were obtained:
[1] = molecular target: GST-RIPK2 fusion protein (human RIPK2 amino acids 1-310) (Homo sapiens (Human), UniProt O43353); assay: RIPK2 binding competition assay (TR-FRET, Tracer 199)
[2] = test system: NF-κB pathway (SEAP) in THP1-Dual cells; assay: THP-1 Dual cell SEAP assay (L18-MDP stimulated); assay type: cell-based; conditions: Homo sapiens, THP1-Dual, read-out: NFkB THP1 IC50
[3] = read-out: RIPK2 IC50, RIPK2 binding competition assay

Chain of GST-RIPK2 fusion protein (human RIPK2 amino acids 1-310) (O43353 1-310): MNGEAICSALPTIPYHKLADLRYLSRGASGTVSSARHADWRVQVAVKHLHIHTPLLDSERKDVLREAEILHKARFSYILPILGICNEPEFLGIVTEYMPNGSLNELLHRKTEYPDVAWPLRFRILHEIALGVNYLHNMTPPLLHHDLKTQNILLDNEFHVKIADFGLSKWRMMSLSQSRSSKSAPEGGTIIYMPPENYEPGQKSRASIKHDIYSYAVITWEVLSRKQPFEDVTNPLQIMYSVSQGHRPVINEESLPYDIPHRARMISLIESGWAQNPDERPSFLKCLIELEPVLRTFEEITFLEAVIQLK

IC50 [1] [µM]	SMILES	IC50 [2] [µM]	IC50 [1, 3] [µM]
0.0025 to 0.02	CCCS(=O)(=O)Nc1cc(OC)cc(-c2cnn3ccc(S(=O)(=O)C(C)(C)C)cc23)c1 [Example 283, N-(3-(5-(tert-butylsulfonyl)pyrazolo[1,5-a]pyridin-3-yl)-5-methoxyphenyl)propane-1-sulfonamide]	0.25 to 1	
0.001 to 0.0025	CCCS(=O)(=O)Nc1cc(-c2cnc3cc(OC)c(S(=O)(=O)C(C)(C)C)cn23)cc(F)c1OC(F)F [Example 284, N-(5-(6-(tert-butylsulfonyl)-7-methoxyimidazo[1,2-a]pyridin-3-yl)-2-(difluoromethoxy)-3-fluorophenyl)propane-1-sulfonamide]	0.05 to 0.25	
	COc1cc2ncc(-c3cc(NS(C)(=O)=O)c(OC)c(OC)c3)n2cc1S(=O)(=O)C(C)(C)C [Example 285, N-(5-(6-(tert-butylsulfonyl)-7-methoxyimidazo[1,2-a]pyridin-3-yl)-2,3-dimethoxyphenyl)methane sulfonamide]	< 0.05	< 0.001
0.0025 to 0.02	CCCS(=O)(=O)Nc1cc(-c2cnc3cc(OC)c(S(=O)(=O)C(C)(C)C)cn23)cnc1OC(F)F [Example 286, N-(5-(6-(tert-butylsulfonyl)-7-methoxyimidazo[1,2-a]pyridin-3-yl)-2-(difluoromethoxy)pyridin-3-yl)propane-1-sulfonamide]	> 1	
	CCCS(=O)(=O)Nc1ccc(F)c(-c2cnc3cc(OC)c(S(=O)(=O)C(C)(C)C)cn23)c1 [Example 287, N-(3-(6-(tert-butylsulfonyl)-7-methoxyimidazo[1,2-a]pyridin-3-yl)-4-fluorophenyl)propane-1-sulfonamide]	> 1	> 0.02
0.0025 to 0.02	CCCS(=O)(=O)Nc1cc(-c2cnc3cc(OC)c(S(=O)(=O)C4CC4)cn23)ccc1OC [Example 288, N-(5-(6-(cyclopropylsulfonyl)-7-methoxyimidazo[1,2-a]pyridin-3-yl)-2-methoxyphenyl)propane-1-sulfonamide]	> 1	
0.0025 to 0.02	CCCS(=O)(=O)Nc1cc(COC)cc(-c2cnc3cc(OC)c(S(=O)(=O)C(C)(C)C)cn23)c1 [Example 289, N-(3-(6-(tert-butylsulfonyl)-7-methoxyimidazo[1,2-a]pyridin-3-yl)-5-(methoxymethyl)phenyl) propane-1-sulfonamide]	0.25 to 1	
0.0025 to 0.02	CCCS(=O)(=O)Nc1cc(-c2cnc3cc(OC)c(S(=O)(=O)C(C)(C)C)cn23)cc(C)c1F [Example 290, N-(5-(6-(tert-butylsulfonyl)-7-methoxyimidazo[1,2-a]pyridin-3-yl)-2-fluoro-3-methylphenyl)propane-1-sulfonamide]	> 1	
0.0025 to 0.02	CCCS(=O)(=O)Nc1cc(-c2cnc3cc(OC)c(S(=O)(=O)C(C)(C)C)cn23)ccc1F [Example 291, N-(5-(6-(tert-butylsulfonyl)-7-methoxyimidazo[1,2-a]pyridin-3-yl)-2-fluorophenyl)propane-1-sulfonamide]	0.25 to 1	
0.0025 to 0.02	CCCS(=O)(=O)Nc1cc(F)cc(-c2cnc3cc(OC)c(S(=O)(=O)C(C)(C)C)cn23)c1F [Example 292, N-(3-(6-(tert-butylsulfonyl)-7-methoxyimidazo[1,2-a]pyridin-3-yl)-2,5-difluorophenyl)propane-1-sulfonamide]	> 1	
	CCCS(=O)(=O)Nc1ccc(-c2cnc3cc(OC)c(S(=O)(=O)C(C)(C)C)cn23)cc1OC(F)F [Example 293, N-(4-(6-(tert-butylsulfonyl)-7-methoxyimidazo[1,2-a]pyridin-3-yl)-2-(difluoromethoxy)phenyl) propane-1-sulfonamide]	> 1	> 0.02
< 0.001	CCS(=O)(=O)Nc1cc(-c2cnc3cc(OC)c(S(=O)(=O)C(C)(C)C)cn23)cc(F)c1OC [Example 294, N-(5-(6-(tert-butylsulfonyl)-7-methoxyimidazo[1,2-a]pyridin-3-yl)-3-fluoro-2-methoxyphenyl)ethane-sulfonamide]	< 0.05	
0.001 to 0.0025	CCCS(=O)(=O)Nc1cc(OC(F)F)cc(-c2cnc3cc(OC)c(S(=O)(=O)C(C)(C)C)cn23)c1 [Example 295, N-(3-(6-(tert-butylsulfonyl)-7-methoxyimidazo[1,2-a]pyridin-3-yl)-5-(difluoromethoxy)phenyl) propane-1-sulfonamide]	0.05 to 0.25	
0.0025 to 0.02	CC(C)(C)S(=O)(=O)c1ccn2ncc(-c3cc(N)nc(F)c3)c2c1 [Example 298, 4-(5-(tert-Butylsulfonyl)pyrazolo[1,5-a]pyridin-3-yl)-6-fluoropyridin-2-amine]	0.05 to 0.25	
> 0.02	CC(C)(C)S(=O)(=O)c1ccn2ncc(-c3ccc(F)nc3N)c2c1 [Example 299, 3-(5-(tert-butylsulfonyl)pyrazolo[1,5-a]pyridin-3-yl)-6-fluoropyridin-2-amine]	> 1	
	CCCS(=O)(=O)Nc1cc(-c2cnc3cc(OC)c(S(=O)(=O)C(C)(C)C)cn23)cc(F)n1 [Example 304, N-(4-(6-(tert-butylsulfonyl)-7-methoxyimidazo[1,2-a]pyridin-3-yl)-6-fluoropyridin-2-yl)propane-1-sulfonamide]	> 1	> 0.02
	COc1cc2ncc(-c3cc(F)c(OC)c(N4CC[C@@H](O)C4=O)c3)n2cc1S(=O)(=O)C(C)(C)C [Example 307, (R)-1-(5-(6-(tert-butylsulfonyl)-7-methoxyimidazo[1,2-a]pyridin-3-yl)-3-fluoro-2-methoxyphenyl)-3-hydroxypyrrolidin-2-one]	> 1	> 0.02
	COc1cc2ncc(-c3cc(NCCCO)ncc3C)n2cc1S(=O)(=O)C(C)(C)C [Example 309, 3-({4-[7-Methoxy-6-(2-methylpropane-2-sulfonyl)imidazo[1,2-a]pyridin-3-yl]-5-methylpyridin-2-yl}amino)propan-1-ol]	> 1	> 0.02
	COc1cc2ncc(-c3cc(NCCCO)ncc3F)n2cc1S(=O)(=O)C(C)(C)C [Example 310, 3-((4-(6-(tert-butylsulfonyl)-7-methoxyimidazo[1,2-a]pyridin-3-yl)-5-fluoropyridin-2-yl)amino)propan-1-ol]	> 1	> 0.02
	CCCS(=O)(=O)Nc1nc(-c2cnc3cc(OC)c(S(=O)(=O)C(C)(C)C)cn23)ccc1OC(F)(F)F [Example 313, N-(6-(6-(tert-butylsulfonyl)-7-methoxyimidazo[1,2-a]pyridin-3-yl)-3-(trifluoromethoxy)pyridin-2-yl)propane-1-sulfonamide]	> 1	> 0.02
	COc1cc2ncc(-c3cc(F)nc(F)c3)n2cc1S(=N)(=O)C(C)(C)C (centres unmarked) [Example 315, tert-butyl(3-(2,6-difluoropyridin-4-yl)-7-methoxyimidazo[1,2-a]pyridin-6-yl)(imino)-λ^6-sulfanone]	> 1	> 0.02
	COc1cc2ncc(-c3cc(F)nc(NCC4CCN(C(C)=O)CC4)c3)n2cc1S(=O)(=O)C(C)(C)C [Example 317, 1-(4-(((4-(6-(tert-butylsulfonyl)-7-methoxyimidazo[1,2-a]pyridin-3-yl)-6-fluoropyridin-2-yl)amino)methyl)piperidin-1-yl)ethan-1-one]	< 0.05	< 0.001

SMILES	IC50 [1] [µM]	IC50 [2] [µM]	IC50 [1, 3] [µM]
CC(C)(C)S(=O)(=O)c1ccn2ncc(-c3cc(F)nc(NCCCO)c3)c2c1 [Example 296, 3-((4-(5-(tert-butylsulfonyl)pyrazolo [1,5-a]pyridin-3-yl)-6-fluoropyridin-2-yl)amino)propan-1-ol]	0.001 to 0.0025	< 0.05	
CC(C)(C)S(=O)(=O)c1ccn2ncc(-c3ccc(N)nc3F)c2c1 [Example 300, 5-(5-(tert-butylsulfonyl)pyrazolo[1,5-a]pyridin-3-yl)-6-fluoropyridin-2-amine]	> 0.02	> 1	
COc1cc2ncc(-c3cc(F)nc(NCC4CCNCC4)c3)n2cc1S(=O)(=O)C(C)(C)C [Example 301, 4-(6-(tert-butylsulfonyl)-7-methoxyimidazo[1,2-a]pyridin-3-yl)-6-fluoro-N-(piperidin-4-ylmethyl)pyridin-2-amine]	0.001 to 0.0025	0.05 to 0.25	
COc1cc(-c2cnc3cc(OC)c(S(=O)(=O)C(C)(C)C)cn23)cc(F)n1 [Example 302, 6-(tert-butylsulfonyl)-3-(2-fluoro-6-methoxypyridin-4-yl)-7-methoxyimidazo[1,2-a]pyridine]	0.0025 to 0.02	0.25 to 1	
COc1cc2ncc(-c3cc(F)c(OC)c(Br)c3)n2cc1S(=O)(=O)C(C)(C)C [Example 305, 3-(3-bromo-5-fluoro-4-methoxyphenyl)-6-(tert-butylsulfonyl)-7-methoxyimidazo[1,2-a]pyridine]	0.0025 to 0.02	> 1	
COc1cc2ncc(-c3cc(F)c(OCCO)c(Br)c3)n2cc1S(=O)(=O)C(C)(C)C [Example 306, 2-(2-bromo-4-(6-(tert-butylsulfonyl)-7-methoxyimidazo[1,2-a]pyridin-3-yl)-6-fluorophenoxy)ethan-1-ol]	0.0025 to 0.02	0.05 to 0.25	
COc1cc2ncc(-c3cc(F)c(OC)c(NCCNC(=O)OC(C)(C)C)c3)n2cc1S(=O)(=O)C(C)(C)C [Example 308, tert-butyl (2-((5-(6-(tert-butylsulfonyl)-7-methoxyimidazo[1,2-a]pyridin-3-yl)-3-fluoro-2-methoxyphenyl)amino)ethyl)carbamate]	0.001 to 0.0025	0.05 to 0.25	
COc1cc2ncc(-c3cc(C)c(OC)c(NCCCO)n3)n2cc1S(=O)(=O)C(C)(C)C [Example 311, 3-((6-(6-(tert-butylsulfonyl)-7-methoxyimidazo[1,2-a]pyridin-3-yl)-3-methoxy-4-methylpyridin-2-yl)amino)propan-1-ol]	0.0025 to 0.02	0.25 to 1	
COc1cc2ncc(-c3ccc(OC)c(NCCCO)n3)n2cc1S(=O)(=O)C(C)(C)C [Example 312, 3-((6-(6-(tert-butylsulfonyl)-7-methoxyimidazo[1,2-a]pyridin-3-yl)-3-methoxypyridin-2-yl)amino)propan-1-ol]	0.0025 to 0.02	0.25 to 1	
